The values below come from the supplement of paper PMC6580486.

For test [1], the system named is PCB490-3 (human epithelioid sarcoma primary culture). The method, then:
(§1)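 Roche open-access kinase inhibitor screen (223 compounds) on human epithelioid sarcoma primary cultures from three spatially distinct regions of tumor PCB490. 384-well plates, 72 h, CellTiter-Glo viability; IC50 by Hill curve fit. 100000 nM = no IC50 reached. Compound ids carry a plate-well prefix, which is stripped.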

The test system of test [2] is PCB490-4 (human epithelioid sarcoma primary culture). The method, then: as §1
Test [3] relates to PCB490-5 (human epithelioid sarcoma primary culture). The method, then: as §1

A value given as a limit tells only on which side of the number the result lay.

Consider `O=C1NC(=N[C@@H](CO)Cc2ccccc2)S/C1=C\c1ccc2ncccc2c1`, for which the IC50 cell viability in test [1], in test [2] and in test [3] was more than 100 µM in each case.
With `Fc1ccc(-c2c(-c3ccncc3)[nH]c3cccnc23)cc1`, the IC50 cell viability in test [1], in test [2] and in test [3] was more than 100 µM each time.
Turning to `Cc1ccccc1-n1ncc(C(=O)c2ccccc2)c1N`, the IC50 cell viability in test [1], in test [2] and in test [3] was more than 100 µM throughout.
In the case of `CON=C1NC(=O)/C(=C/c2ccc3ncccc3c2)S1`, the IC50 cell viability in test [1] is 6.8 µM; in test [2] it was more than 100 µM; in test [3] it was more than 100 µM.
Consider `Fc1ccc(-c2c(-c3ccncc3)[nH]c3nccnc23)cc1`, for which the IC50 cell viability in test [1], in test [2] and in test [3] was more than 100 µM throughout.
Regarding `O=C1NC(=N[C@@H](CO)c2ccccc2)S/C1=C\c1ccc2ncccc2c1`, the IC50 cell viability in test [1], in test [2] and in test [3] was more than 100 µM throughout.
`COc1ccc(O)c(C(=O)c2ccc(C(=O)N[C@@H]3CCCNC[C@H]3NC(=O)c3ccncc3)cc2)c1F`: the IC50 cell viability in test [1], in test [2] and in test [3] was more than 100 µM throughout.
As to `Cn1cc(C2=C(c3cn(C)c4ccc(N)cc34)C(=O)NC2=O)c2ccccc21`, the IC50 cell viability in test [1], in test [2] and in test [3] was more than 100 µM throughout.
Regarding `N#Cc1cccc(C(=O)c2cnn(-c3ccc(F)cc3)c2N)c1`, the IC50 cell viability in test [1], in test [2] and in test [3] was more than 100 µM each time.
On to `O=C1NC(=NCc2ccccc2Br)S/C1=C\c1ccc2ncccc2c1`, for which the IC50 cell viability in test [1], in test [2] and in test [3] was more than 100 µM in each case.
Turning to `C/C(=C1/SC(=NCc2cccs2)NC1=O)c1ccc2ncccc2c1`, the IC50 cell viability in test [1], in test [2] and in test [3] was more than 100 µM each time.
On to `O=C1NC(=NCCc2cccc(Cl)c2)S/C1=C\c1ccc2ncccc2c1`, for which the IC50 cell viability in test [1], in test [2] and in test [3] was more than 100 µM each time.
With `COc1cccc(C2=C(c3cn(C)c4cc(F)ccc34)C(=O)NC2=O)c1`, the IC50 cell viability in test [1], in test [2] and in test [3] was more than 100 µM each time.
As to `Cn1c(=O)c(Oc2ccc(F)cc2F)cc2cnc(N[C@H]3CCOC3)nc21`, the IC50 cell viability in test [1], in test [2] and in test [3] was more than 100 µM throughout.
Regarding `O=C1NC(=N[C@H](CO)c2ccccc2)S/C1=C\c1ccc2ncccc2c1`, the IC50 cell viability in test [1], in test [2] and in test [3] was more than 100 µM each time.
With `CS(=O)(=O)CCn1c(=O)c(Oc2ccc(F)cc2F)cc2cnc(NC3CCOCC3)nc21`, the IC50 cell viability in test [1], in test [2] and in test [3] was more than 100 µM throughout.
With `Nc1c(C(=O)c2cccc(C#CCN3CCCCC3)c2)cnn1-c1ccc(F)cc1`, the IC50 cell viability in test [1], in test [2] and in test [3] was more than 100 µM each time.
Regarding `C[C@@H](c1ccccc1)[C@@H](C(=O)Nc1ccc(I)cc1F)N1C(=O)N[C@H](c2ccc(OC[C@H](O)CO)cc2)C1=O`, the IC50 cell viability in test [1], in test [2] and in test [3] was more than 100 µM throughout.
Consider `Cn1c(=O)c(Oc2ccc(F)cc2F)cc2cnc(NCC(C)(C)O)nc21`, for which the IC50 cell viability in test [1], in test [2] and in test [3] was more than 100 µM throughout.
For `Cn1cc(C2=C(n3ccc4ccccc43)C(=O)NC2=O)c2ccccc21`, the IC50 cell viability in test [1], in test [2] and in test [3] was more than 100 µM throughout.
Consider `Cn1c(=O)c(Oc2ccc(F)cc2F)cc2cnc(NCCS(C)(=O)=O)nc21`, for which the IC50 cell viability in test [1], in test [2] and in test [3] was more than 100 µM throughout.
`Cn1c(=O)c(Oc2ccc(F)cc2F)cc2cnc(NC3CCC(O)CC3)nc21` (centres undefined): the IC50 cell viability in test [1], in test [2] and in test [3] was more than 100 µM in each case.
For the compound `Cn1cc(C2=C(c3c4n(c5ccccc35)CCNC4)C(=O)NC2=O)c2ccccc21`, the IC50 cell viability in test [1], in test [2] and in test [3] was more than 100 µM in each case.
For the compound `CS(=O)(=O)CCCn1c(=O)c(Oc2ccc(F)cc2F)cc2cnc(NC3CCOCC3)nc21`, the IC50 cell viability in test [1], in test [2] and in test [3] was more than 100 µM each time.
With `Cn1cc(C2=C(c3c4n(c5ccccc35)CCCCC4)C(=O)NC2=O)c2ccccc21`, the IC50 cell viability in test [1], in test [2] and in test [3] was more than 100 µM in each case.
As to `CC(=O)N[C@@H](Cc1ccc(OP(=O)(O)O)cc1)C(=O)N[C@H]1CCC(=O)N2CCC[C@@H](C(=O)NCc3ccc(Cl)cc3)N2C1=O`, the IC50 cell viability in test [1], in test [2] and in test [3] was more than 100 µM in each case.
Consider `COc1cccc(C2=C(c3cn(C)c4cccc(OC)c34)C(=O)NC2=O)c1`, for which the IC50 cell viability in test [1], in test [2] and in test [3] was more than 100 µM in each case.
On to `CNCC#Cc1c(F)ccc2c1/C(=C/c1[nH]ccc1OC)C(=O)N2`, for which the IC50 cell viability came to 26.8 µM in test [1], 20.7 µM in test [2] and 19.5 µM in test [3].
As to `Cn1cc(C2=C(c3cccc(OC[C@H](O)CO)c3)C(=O)NC2=O)c2ccccc21`, the IC50 cell viability in test [1], in test [2] and in test [3] was more than 100 µM in each case.
In the case of `Cn1c(=O)c(Oc2cccc(F)c2)cc2cnc(NC3CCOCC3)nc21`, the IC50 cell viability in test [1], in test [2] and in test [3] was more than 100 µM in each case.
In the case of `Cn1cc(C2=C(c3c[nH]c4ccccc34)C(=O)NC2=O)c2ccccc21`, the IC50 cell viability in test [1], in test [2] and in test [3] was more than 100 µM each time.
Turning to `COc1cc[nH]c1/C=C1\C(=O)Nc2ccc(F)c(I)c21`, the IC50 cell viability in test [1], in test [2] and in test [3] was more than 100 µM throughout.
As to `CC(=O)Nc1ccc2c(C3=C(c4cn(C)c5ccccc45)C(=O)NC3=O)cn(C)c2c1`, the figures for the IC50 cell viability in test [1], in test [2] and in test [3] were more than 100 µM, 1.94 µM and more than 100 µM, respectively.
In the case of `C[C@@H](CS(C)(=O)=O)Nc1ncc2cc(Oc3ccc(F)cc3F)c(=O)n(C)c2n1`, the IC50 cell viability in test [1], in test [2] and in test [3] was more than 100 µM in each case.
On to `Cn1cc(C2=C(c3ccc4ccccc4c3)C(=O)NC2=O)c2ccccc21`, for which the IC50 cell viability in test [1], in test [2] and in test [3] was more than 100 µM each time.
In the case of `Cn1cc(C2=C(c3cn(C)c4c([N+](=O)[O-])cccc34)C(=O)NC2=O)c2ccccc21`, the IC50 cell viability in test [1], in test [2] and in test [3] was more than 100 µM in each case.
For `CC(CO)Nc1cc(-c2[nH]c3cccnc3c2-c2ccc(F)cc2)ccn1` (centres undefined), the IC50 cell viability in test [1], in test [2] and in test [3] was more than 100 µM each time.
For the compound `COc1ccccc1CN=C1NC(=O)/C(=C/c2ccc3ncccc3c2)S1`, the IC50 cell viability in test [1], in test [2] and in test [3] was more than 100 µM each time.
Turning to `Cc1ccc2c(c1)c(C1=C(c3cn(C)c4ccccc34)C(=O)NC1=O)cn2C`, the IC50 cell viability in test [1], in test [2] and in test [3] was more than 100 µM in each case.
In the case of `Cc1[nH]nc2c1N=C(c1ccccc1F)c1cc(C(N)=O)ccc1N2`, the IC50 cell viability in test [1] was more than 100 µM; in test [2] it was 2.66 µM; in test [3], 4.23 µM.
For `Nc1c(C(=O)c2cccc(C#CCN3CCOCC3)c2)cnn1-c1ccc(F)cc1`, the IC50 cell viability in test [1], in test [2] and in test [3] was more than 100 µM in each case.
For the compound `CN(C)CC#Cc1cccc(C(=O)c2cnn(-c3ccc(F)cc3)c2N)c1`, the IC50 cell viability in test [1], in test [2] and in test [3] was more than 100 µM each time.
`CN1CCN(CCc2cccc(C(=O)c3cnn(-c4ccc(F)cc4)c3N)c2)CC1`: the IC50 cell viability in test [1], in test [2] and in test [3] was more than 100 µM each time.
As to `CCOc1ccccc1CCN=C1NC(=O)/C(=C/c2ccc3ncccc3c2)S1`, the IC50 cell viability in test [1], in test [2] and in test [3] was more than 100 µM each time.
As to `O=C1NC(=O)/C(=C/c2ccc3ncccc3c2)S1`, the IC50 cell viability in test [1], in test [2] and in test [3] was more than 100 µM each time.
As for `Cn1cc(C2=C(c3ccccc3C(F)(F)F)C(=O)NC2=O)c2ccccc21`, the IC50 cell viability in test [1], in test [2] and in test [3] was more than 100 µM each time.
Regarding `Cc1cc(C)c2c(n1)sc1c(N)ncnc12`, the IC50 cell viability in test [1], in test [2] and in test [3] was more than 100 µM in each case.
`CCCn1cc(C2=C(c3cn(C)c4ccccc34)C(=O)NC2=O)c2ccccc21`: the IC50 cell viability in test [1], in test [2] and in test [3] was more than 100 µM each time.
